# Data as given in PubChem BioAssay (NCI).
#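 Five compound concentrations were applied to cells in 96-well plates for 48 hours; endpoints were derived by simple linear interpolation of the resulting dose-response curve. At the GI50, growth is halved. TGI: total growth inhibition.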
# Experiments:
# Experiment in all cases: DTP human tumour cell line panel, 48 h
# [1] = tested on: NCI-H522 lung
# [2] = tested on: MDA-MB-468 breast
# [3] = tested on: HCT-15 colon
# [4] = tested on: HOP-62 NSCLC
# [5] = tested on: SK-OV-3 ovarian
# [6] = tested on: U251 CNS
# [7] = tested on: RPMI-8226 leukemia
# [8] = tested on: SK-MEL-2 melanoma
# [9] = tested on: MCF7 breast
# [10] = tested on: HCT-116 colon
# [11] = tested on: OVCAR-4 ovarian
# [12] = tested on: KM12 colon
# [13] = tested on: ACHN renal
# [14] = tested on: PC-3 prostate
# [15] = tested on: RXF 393 renal
# [16] = tested on: HOP-92 NSCLC
# [17] = tested on: HL-60(TB) leukemia
# [18] = tested on: SK-MEL-28 melanoma
# [19] = tested on: SF-295 CNS
# [20] = tested on: EKVX NSCLC
# [21] = tested on: MALME-3M melanoma
# [22] = tested on: UACC-257 melanoma
# [23] = tested on: CCRF-CEM leukemia
# [24] = tested on: SNB-75 CNS
# [25] = tested on: K-562 leukemia
# [26] = tested on: OVCAR-3 ovarian
# [27] = tested on: SK-MEL-5 melanoma
# [28] = tested on: NCI-H23 lung
# [29] = tested on: UO-31 renal
# [30] = tested on: HCC-2998 colon
# [31] = tested on: A498 renal
# [32] = tested on: TK-10 renal
# [33] = tested on: SR leukemia
# [34] = tested on: SW-620 colon
# [35] = tested on: MDA-MB-435
# [36] = tested on: SNB-19 CNS
# [37] = tested on: COLO 205 colon
# [38] = tested on: MOLT-4 leukemia
# [39] = tested on: NCI-H460 lung
# [40] = tested on: SN12C renal
# [41] = tested on: HS 578T breast
# [42] = tested on: A549 NSCLC
# [43] = tested on: M14 melanoma
# [44] = tested on: CAKI-1 renal
# [45] = tested on: BT-549 breast
# [46] = tested on: SF-539 CNS
# [47] = tested on: DU-145 prostate
# [48] = tested on: 786-0 renal
# [49] = tested on: NCI-H226 lung
# [50] = tested on: UACC-62 melanoma
# [51] = tested on: MDA-MB-231 breast
# [52] = tested on: HT29 colon
# [53] = tested on: IGROV1 ovarian
# [54] = tested on: NCI/ADR-RES ovarian
# [55] = tested on: OVCAR-5 ovarian
# [56] = tested on: LOX IMVI melanoma
# [57] = tested on: OVCAR-8 ovarian
# [58] = tested on: SF-268 CNS
structure (smiles),measurement,setting,value
O=C1NC(=S)S/C1=C\c1cn(-c2ccccc2)nc1-c1ccc([N+](=O)[O-])cc1,GI50,[1],2.39 µM
same,TGI,[1],18.7 µM
same,GI50,[2],1.9 µM
same,TGI,[2],10.8 µM
same,GI50,[3],2.1 µM
same,TGI,[3],12.9 µM
same,GI50,[4],3.45 µM
same,TGI,[4],16.5 µM
same,GI50,[5],3.33 µM
same,TGI,[5],12.9 µM
same,GI50,[6],2.94 µM
same,TGI,[6],11 µM
same,GI50,[7],2.66 µM
same,TGI,[7],> 100 µM
same,GI50,[8],2.42 µM
same,TGI,[8],7.46 µM
same,GI50,[9],2.74 µM
same,TGI,[9],> 100 µM
same,GI50,[10],2.71 µM
same,TGI,[10],10.9 µM
same,GI50,[11],2.6 µM
same,TGI,[11],16.4 µM
same,GI50,[12],3.34 µM
same,TGI,[12],15.4 µM
same,GI50,[13],3.04 µM
same,TGI,[13],13.4 µM
same,GI50,[14],2.71 µM
same,TGI,[14],> 100 µM
same,GI50,[15],3.2 µM
same,TGI,[15],8.61 µM
same,GI50,[16],2.73 µM
same,TGI,[16],8.64 µM
same,GI50,[17],2.78 µM
same,TGI,[17],21.2 µM
same,GI50,[18],2.68 µM
same,TGI,[18],9.82 µM
same,GI50,[19],2.39 µM
same,TGI,[19],11.2 µM
same,GI50,[20],2.6 µM
same,TGI,[20],10.4 µM
same,GI50,[21],1.96 µM
same,TGI,[21],6.4 µM
same,GI50,[22],2.43 µM
same,TGI,[22],7.67 µM
same,GI50,[23],2.33 µM
same,TGI,[23],> 100 µM
same,GI50,[24],1.83 µM
same,TGI,[24],11.5 µM
same,GI50,[25],2.53 µM
same,TGI,[25],> 100 µM
same,GI50,[26],2.95 µM
same,TGI,[26],12.4 µM
same,GI50,[27],1.34 µM
same,TGI,[27],3.3 µM
same,GI50,[28],2.19 µM
same,TGI,[28],8.15 µM
same,GI50,[29],2.5 µM
same,TGI,[29],11.9 µM
same,GI50,[30],2.88 µM
same,TGI,[30],12.6 µM
same,GI50,[31],2.68 µM
same,TGI,[31],8.93 µM
same,GI50,[32],3.81 µM
same,TGI,[32],> 100 µM
same,GI50,[33],4.3 µM
same,TGI,[33],> 100 µM
same,GI50,[34],3.27 µM
same,TGI,[34],> 100 µM
same,GI50,[35],2.86 µM
same,TGI,[35],11.7 µM
same,GI50,[36],3.46 µM
same,TGI,[36],23.2 µM
same,GI50,[37],3.5 µM
same,TGI,[37],17.6 µM
same,GI50,[38],2.89 µM
same,TGI,[38],> 100 µM
same,GI50,[39],2.05 µM
same,TGI,[39],5.8 µM
same,GI50,[40],2.53 µM
same,TGI,[40],15.2 µM
same,GI50,[41],2.56 µM
same,TGI,[41],9.27 µM
same,GI50,[42],3.16 µM
same,TGI,[42],25.3 µM
same,GI50,[43],3.4 µM
same,TGI,[43],14.2 µM
same,GI50,[44],3.04 µM
same,TGI,[44],13.5 µM
same,GI50,[45],2.15 µM
same,TGI,[45],6.51 µM
same,GI50,[46],3.45 µM
same,TGI,[46],13.8 µM
same,GI50,[47],3.63 µM
same,TGI,[47],> 100 µM
same,GI50,[48],3.49 µM
same,TGI,[48],13.5 µM
same,GI50,[49],2.49 µM
same,TGI,[49],12.1 µM
same,GI50,[50],1.23 µM
same,TGI,[50],3.18 µM
same,GI50,[51],4.17 µM
same,TGI,[51],16.9 µM
same,GI50,[52],3.86 µM
same,TGI,[52],89.5 µM
same,GI50,[53],3.4 µM
same,TGI,[53],14.8 µM
same,GI50,[54],2.83 µM
same,TGI,[54],12.3 µM
same,GI50,[55],5.53 µM
same,TGI,[55],26.7 µM
same,GI50,[56],3.22 µM
same,TGI,[56],12.8 µM
same,GI50,[57],3.68 µM
same,TGI,[57],23.4 µM
same,GI50,[58],3.01 µM
same,TGI,[58],> 100 µM
